Test results as given in patent US20160346398A1, “CROSS-LINKED HYALURONIC ACID FOR DRUG DELIVERY AND PHARMACEUTICAL PREPARATION USING SAME” (ALURON BIOPHARMA INC., priority 2015, published 2016).
Like-named read-outs stand apart in the source and are kept apart here.

How the values were obtained:
[1] = cited from earlier work
in vivo [2] = conditions: rat
Protocol: Quantification was performed using the selective MRM mode on a short LC column using a fast gradient.
Blood samples were collected at time 0, 30 min and 1, 3, 6, 24, 30 and 48 hrs. All plasma samples were collected after centrifugation and frozen at −80° C. Plasma was transferred on dry ice to the Platform of Biopharmacy and was kept at −80° C. until extraction and LC/MS/MS analysis (Table 1).
The plasma tubes were thawed on ice. Plasma samples were vortex mixed and 20 μL were pipetted into Eppendorf tubes. Proteins were precipitated by the addition of 40 μL acetonitrile. The tubes were vortex mixed and centrifuged for 4.5 min at 13,000 rpm. 20 μL of supernatant was transferred into a HPLC 96-well plate, and mixed with two volumes of water containing 5 mM ammonium acetate. The calibration curve was prepared in blank SD rat plasma, by serial dilution from 10 μM to […] Standard plasma samples were treated as described above.
Chromatography was performed on a Phenomenex Luna C8(2) 30×2 mm (5 μm) using gradient elution at 0.7 mL/min. The injection volume was 4 μL. The total acquisition time was 4.5 min. Samples were analyzed in selective MRM mode using LC-MS/MS. Peak area ratios for calibration curves and quantification of samples were calculated using Analyst software version 1.6.2. Calibration curves were plotted using the peak area ratios analyte/internal standard versus nominal analyte concentration, using a quadratic weighted 1/x regression.

[3] = rat, in vivo
in vivo [4] = conditions: male, rat, po, 50 mg/kg, plasma Raloxifene

Structure (SMILES)	water solubility (in words) [1]	Cmax (in vivo [2]; male, SD (Sprague-Dawley), po, 5 mg/kg, Cmax, plasma Letrozole)	Tmax (in vivo [2]; male, SD (Sprague-Dawley), po, 5 mg/kg, plasma Letrozole)	Tmax (in vivo [2]; male, SD, po, 5 mg/kg, plasma Letrozole)	drug toxicity after combination with HA (in vivo [2])	bioavailability after combination with HA (in vivo [2]; po)	drug toxicity after combination with HA [3]	bioavailability after combination with HA ([3]; po)	Cmax (in vivo [4]; SD (Sprague-Dawley), Cmax)	Tmax (in vivo [4]; SD (Sprague-Dawley))	Tmax (in vivo [4]; SD)
CCc1c2c(nc3ccc(OC(=O)N4CCC(N5CCCCC5)CC4)cc13)-c1cc3c(c(=O)n1C2)COC(=O)[C@]3(O)CC [Irinotecan]	good water solubility										
N#Cc1ccc(C(c2ccc(C#N)cc2)n2cncn2)cc1 [Letrozole]	very poor water solubility	4240 nM	4.5 h	6 h	no detectable augmentation of the drug toxicity	increased					
O=C(c1ccc(OCCN2CCCCC2)cc1)c1c(-c2ccc(O)cc2)sc2cc(O)ccc12 [Raloxifene]	very poor water solubility						no detectable augmentation of the drug toxicity	increased	190 nM	4.5 h	3 h
